Test results: patent US9708336B2, “Metallo-beta-lactamase inhibitors” (priority 2014, dated 2017)
Where two headings read alike, the source gives them in different places.

Columns and labels:
[1] = system: Serratia marcescens expressing IMP-1 (CL5741); assay: Antibiotic potentiation activity: synergistic concentration (MITC95) with imipenem, OD600 growth; assay type: cell-based; settings: Serratia marcescens CL5741 (IMP-1), 95% growth inhibition
Procedure, shortened: (§1)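 Compound activity is tested with and without imipenem, which is present at 4 μg/ml (or 1 μg/ml) in the well. Bacteria in 1.1× CAMHB are incubated 22–24 h at 35 °C; absorbance gives the growth endpoint.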

[2] = system: Escherichia coli expressing NDM-1 (CLB30016); assay: as above; assay type: cell-based; settings: (CLB30016, NDM-1), 95% growth inhibition
Procedure, shortened: as §1

[3] = system: Klebsiella pneumoniae expressing VIM-1 (IHMA599644); assay: as above; assay type: cell-based; settings: Klebsiella pneumoniae IHMA599644 (VIM-1), 95% growth inhibition
Procedure, shortened: as §1

NDM-1 = NDM-1 (Klebsiella pneumoniae, UniProt C7C422); assay: biochemical; assay type: biochemical
Sequence of NDM-1 (C7C422 whole entry, looked up, species assumed): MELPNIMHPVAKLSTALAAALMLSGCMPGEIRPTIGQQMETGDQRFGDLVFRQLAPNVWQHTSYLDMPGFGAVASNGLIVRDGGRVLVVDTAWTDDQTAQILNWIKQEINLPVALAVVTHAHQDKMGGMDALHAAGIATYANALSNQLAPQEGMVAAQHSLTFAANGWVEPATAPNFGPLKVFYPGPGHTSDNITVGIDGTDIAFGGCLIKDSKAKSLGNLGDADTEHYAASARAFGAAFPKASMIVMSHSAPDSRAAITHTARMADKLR

VIM-1 = VIM-1 (Pseudomonas aeruginosa (strain ATCC 15692 / DSM 22644 / CIP 104116 / JCM 14847 / LMG 12228 / 1C / PRS 101 / PAO1), UniProt A0A0F7KYQ8); assay: Enzyme activity: determination of IC50, fluorescence assay with CCF2-FA substrate (VIM-1); assay type: biochemical; settings: CCF2-FA substrate
IMP-1 = IMP-1 (Serratia marcescens, UniProt P52699); assay: biochemical; assay type: biochemical; settings: IMP-1 enzyme, CCF2-FA substrate; read-out: IMP-1 IC50
Sequence of IMP-1 (P52699 whole entry, looked up): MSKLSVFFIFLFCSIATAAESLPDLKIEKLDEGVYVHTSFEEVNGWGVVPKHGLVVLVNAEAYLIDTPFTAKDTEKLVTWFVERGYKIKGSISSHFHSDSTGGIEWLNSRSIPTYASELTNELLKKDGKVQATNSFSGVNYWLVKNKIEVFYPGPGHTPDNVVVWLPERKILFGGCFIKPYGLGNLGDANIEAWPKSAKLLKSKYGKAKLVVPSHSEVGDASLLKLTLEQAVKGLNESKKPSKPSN

[4] = NDM-1 enzyme, CCF2-FA substrate, read-out: NDM-1 IC50
[5] = VIM-1 enzyme, read-out: VIM-1 IC50

Row | Compound | Serratia marcescens MITC95 [1] [µM] | Escherichia coli MITC95 [2] [µM] | Klebsiella pneumoniae MITC95 [3] [µM] | IC50 (NDM-1) [nM] | IC50 (VIM-1; VIM-1 IC50, VIM-1 enzyme) [nM] | IC50 (IMP-1) [nM] | IC50 (NDM-1; [4]) [nM] | IC50 (VIM-1; [5]) [nM]
1 | NS(=O)(=O)c1c(C(F)(F)F)ccc([C@H]2CC[C@H](C3=NCCN3)CC2)c1-c1nnn[nH]1 [Example 506, 3-(trans 4-(4,5-dihydro-1H-imidazol-2-yl)cyclohexyl)-2-(1H-tetrazol-5-yl)-6-(trifluoromethyl)benzenesulfonamide] | 6.25 | 4.688 | 100 | 2.22 | 41.4 | 35.7 | – | –
2 | Nc1ncc(C#Cc2ccc(C(F)(F)F)c(S(N)(=O)=O)c2-c2nn[nH]n2)cc1CO [Example 507, 3-((6-Amino-5-(hydroxymethyl)pyridin-3-yl)ethynyl)-2-(2H-tetrazol-5-yl)-6-(trifluoromethyl)benzenesulfonamide] | 0.5859 | 4.688 | 25 | – | 3.27 | 4.31 | 11.5 | –
3 | Nc1ncc(CCc2ccc(C(F)(F)F)c(S(N)(=O)=O)c2-c2nn[nH]n2)cc1CO [Example 508, 3-(2-(6-Amino-5-(hydroxymethyl)pyridin-3-yl)ethyl)-2-(2H-tetrazol-5-yl)-6-(trifluoromethyl)benzenesulfonamide] | 0.0625 | 0.8359 | 3.125 | – | – | 2.37 | 4.55 | 1.66
4 | NCC(CN)c1ccc(-c2cccc(S(N)(=O)=O)c2-c2nnn[nH]2)cc1 [Example 509, 4′-(1,3-Diaminopropan-2-yl)-2-(1H-tetrazol-5-yl)-[1,1′-biphenyl]-3-sulfonamide] | 12.5 | 1.563 | 50 | – | – | 929 | 57.4 | 396
5 | NS(=O)(=O)c1c(C(F)(F)F)ccc(C2CCCc3sc(C(=O)O)nc32)c1-c1nnn[nH]1 (stereo not drawn) [Example 510, 4-(3-Sulfamoyl-2-(1H-tetrazol-5-yl)-4-(trifluoromethyl)phenyl)-4,5,6,7-tetrahydrobenzo[d]thiazole-2-carboxylic acid] | 200 | 50 | >200 | – | – | 47.4 | 3.42 | 12.8
6 | NC1=NCC(c2ccc(-c3cccc(S(N)(=O)=O)c3-c3nnn[nH]3)cc2)CN1 (stereo not drawn) [Example 511, 4′-(2-Amino-1,4,5,6-tetrahydropyrimidin-5-yl)-2-(1H-tetrazol-5-yl)-[1,1′-biphenyl]-3-sulfonamide] | 3.125 | 3.125 | 100 | – | 41.6 | 14.3 | 4.8 | –
7 | COCc1cc(CCc2ccc(C(F)(F)F)c(S(N)(=O)=O)c2-c2nn[nH]n2)cnc1N [Example 512, 3-(2-(6-Amino-5-(methoxymethyl)pyridin-3-yl)ethyl)-2-(2H-tetrazol-5-yl)-6-(trifluoromethyl)benzenesulfonamide] | 0.9766 | 9.375 | 2.344 | – | – | 46 | 162 | 3.9
8 | NCc1ncc(CCc2ccc(C(F)(F)F)c(S(N)(=O)=O)c2-c2nn[nH]n2)cc1N [Example 513, 3-(2-(5-Amino-6-(aminomethyl)pyridin-3-yl)ethyl)-2-(2H-tetrazol-5-yl)-6-(trifluoromethyl)benzenesulfonamide] | 9.375 | 12.5 | 9.375 | – | – | 3.61 | 9.35 | 1.18
9 | NS(=O)(=O)c1c(C(F)(F)F)ccc(-c2cccc3c2ccc[n+]3[O-])c1-c1nn[nH]n1 [Example 514, 5-(3-Sulfamoyl-2-(2H-tetrazol-5-yl)-4-(trifluoromethyl)phenyl)quinoline 1-oxide] | 1.172 | 3.125 | 9.375 | – | – | 6.08 | 1.15 | 0.138
10 | NS(=O)(=O)c1c(C(F)(F)F)ccc(-c2cccc3cnccc23)c1-c1nn[nH]n1 [Example 515, 3-(Isoquinolin-5-yl)-2-(2H-tetrazol-5-yl)-6-(trifluoromethyl)benzenesulfonamide] | 0.3906 | 4.688 | 6.25 | – | 0.309 | 3.68 | 0.603 | –
11 | NS(=O)(=O)c1c(C(F)(F)F)ccc(-c2cccc3c[n+]([O-])ccc23)c1-c1nn[nH]n1 [Example 516, 5-(3-Sulfamoyl-2-(2H-tetrazol-5-yl)-4-(trifluoromethyl)phenyl)isoquinoline 2-oxide] | 0.7813 | 6.25 | 6.25 | – | – | 12.6 | 2.4 | 0.277
12 | NS(=O)(=O)c1c(C(F)(F)F)ccc(-c2cccc3c2CCNC3)c1-c1nn[nH]n1 [Example 517, 3-(1,2,3,4-Tetrahydroisoquinolin-5-yl)-2-(2H-tetrazol-5-yl)-6-(trifluoromethyl)benzenesulfonamide] | 3.125 | 3.125 | 1.563 | – | – | 37.2 | 5.88 | 0.937
13 | NS(=O)(=O)c1c(C(F)(F)F)ccc(-c2cccc3c2CCCN3)c1-c1nnn[nH]1 [Example 518, 3-(1,2,3,4-Tetrahydroquinolin-5-yl)-2-(1H-tetrazol-5-yl)-6-(trifluoromethyl)benzenesulfonamide] | 0.3906 | 1.563 | 6.25 | – | 0.342 | 1.62 | 0.775 | –
14 | NS(=O)(=O)c1cccc(C2CCCc3ncccc32)c1-c1nn[nH]n1 (stereo not drawn) [Example 519, 3-(5,6,7,8-Tetrahydroquinolin-5-yl)-2-(2H-tetrazol-5-yl)benzenesulfonamide] | 100 | 1.563 | 37.5 | – | 24.6 | 766 | 3.78 | –
15 | NS(=O)(=O)c1cccc(-c2cccc3c2OCC3=O)c1-c1nn[nH]n1 [Example 521, 3-(3-Oxo-2,3-dihydrobenzofuran-7-yl)-2-(2H-tetrazol-5-yl)benzenesulfonamide] | 12.5 | 1.563 | 12.5 | – | – | 559 | 3.44 | 19.7
16 | NS(=O)(=O)c1cccc(-c2cccc3ccoc23)c1-c1nn[nH]n1 [Example 522, 3-(Benzofuran-7-yl)-2-(2H-tetrazol-5-yl)benzenesulfonamide] | 18.75 | 2.344 | 50 | – | – | 263 | 3.4 | 52.9
17 | Nc1cc(-c2cccc(S(N)(=O)=O)c2-c2nn[nH]n2)cnc1N [Example 523, 3-(5,6-Diaminopyridin-3-yl)-2-(2H-tetrazol-5-yl)benzenesulfonamide] | 9.375 | 0.125 | 4.125 | – | – | 1210 | 20.2 | 226
18 | N=C(N)NC1CCC(CCc2ccc(C(F)(F)F)c(S(N)(=O)=O)c2-c2nn[nH]n2)CC1 (stereo not drawn) [Example 524, 3-(2-(4-Guanidinocyclohexyl)ethyl)-2-(2H-tetrazol-5-yl)-6-(trifluoromethyl)benzenesulfonamide] | 6.25 | 12.5 | 12.5 | – | – | 5.13 | 24.8 | 1.05
19 | NS(=O)(=O)c1c(C(F)(F)F)ccc(-c2cccc3c2CNC3=O)c1-c1nn[nH]n1 [Example 525, 3-(1-Oxoisoindolin-4-yl)-2-(2H-tetrazol-5-yl)-6-(trifluoromethyl)benzenesulfonamide] | 12.5 | 3.125 | 4.688 | – | – | 6.85 | 0.541 | 0.0897
20 | Nc1cccc2c(-c3ccc(C(F)(F)F)c(S(N)(=O)=O)c3-c3nn[nH]n3)cc(C(=O)O)nc12 [Example 526, 8-Amino-4-(3-sulfamoyl-2-(2H-tetrazol-5-yl)-4-(trifluoromethyl)phenyl)quinoline-2-carboxylic acid] | 100 | 25 | 50 | – | – | 4.58 | 1.85 | 1.59
